Measurements as given in publication PMC11240139, “Exploring the antitumor potential of novel quinoline derivatives via tubulin polymerization inhibition in breast cancer; design, synthesis and molecular docking” (RSC Advances, 2024).

Columns and labels:
[1] = tested on: HL-60(TB) (leukemia); experiment: NCI-60 SRB cytotoxicity screen; assay type: cell-based; settings: Homo sapiens, single dose 10 μM, read-out: growth inhibition (GI%)
[2] = tested on: K-562 (leukemia); experiment: NCI-60 SRB cytotoxicity screen; assay type: cell-based; settings: Homo sapiens; K-652 [sic], single dose 10 μM; read-out: growth inhibition (GI%)
[3] = tested on: RPMI-8226 (leukemia); experiment: NCI-60 SRB cytotoxicity screen; assay type: cell-based; settings: Homo sapiens; RPMI-8226, single dose 10 μM; read-out: growth inhibition (GI%)
[4] = tested on: A549/ATCC (non-small cell lung cancer); experiment: NCI-60 SRB cytotoxicity screen; assay type: cell-based; settings: Homo sapiens, single dose 10 μM, read-out: growth inhibition (GI%)
[5] = tested on: HOP-62 (non-small cell lung cancer); experiment: NCI-60 SRB cytotoxicity screen; assay type: cell-based; settings: Homo sapiens; HOP-62, single dose 10 μM; read-out: growth inhibition (GI%)
[6] = tested on: HOP-92 (non-small cell lung cancer); experiment: NCI-60 SRB cytotoxicity screen; assay type: cell-based; settings: Homo sapiens; HOP-92, single dose 10 μM; read-out: growth inhibition (GI%)
[7] = tested on: NCI-H226 (non-small cell lung cancer); experiment: NCI-60 SRB cytotoxicity screen; assay type: cell-based; settings: Homo sapiens; NCI-H226, single dose 10 μM; read-out: growth inhibition (GI%)
[8] = tested on: NCI-H23 (non-small cell lung cancer); experiment: NCI-60 SRB cytotoxicity screen; assay type: cell-based; settings: Homo sapiens; NCI-H23, single dose 10 μM; read-out: growth inhibition (GI%)
[9] = tested on: NCI-H322M (non-small cell lung cancer); experiment: NCI-60 SRB cytotoxicity screen; assay type: cell-based; settings: Homo sapiens, single dose 10 μM, read-out: growth inhibition (GI%)
[10] = tested on: NCI-H460 (non-small cell lung cancer); experiment: NCI-60 SRB cytotoxicity screen; assay type: cell-based; settings: Homo sapiens; NCI-H460, single dose 10 μM; read-out: growth inhibition (GI%)
[11] = tested on: NCI-H522 (non-small cell lung cancer); experiment: NCI-60 SRB cytotoxicity screen; assay type: cell-based; settings: Homo sapiens; NCI-H522, single dose 10 μM; read-out: growth inhibition (GI%)
[12] = tested on: COLO 205 (colon cancer); experiment: NCI-60 SRB cytotoxicity screen; assay type: cell-based; settings: Homo sapiens; COLO 205, single dose 10 μM; read-out: growth inhibition (GI%)
[13] = tested on: HCC-2998 (colon cancer); experiment: NCI-60 SRB cytotoxicity screen; assay type: cell-based; settings: Homo sapiens; HCC-2998, single dose 10 μM; read-out: growth inhibition (GI%)
[14] = tested on: HCT-116 (colon cancer); experiment: NCI-60 SRB cytotoxicity screen; assay type: cell-based; settings: Homo sapiens; HCT-116, single dose 10 μM; read-out: growth inhibition (GI%)
[15] = tested on: KM12 (colon cancer); experiment: NCI-60 SRB cytotoxicity screen; assay type: cell-based; settings: Homo sapiens; KM12, single dose 10 μM; read-out: growth inhibition (GI%)
[16] = tested on: SNB-75 (CNS cancer); experiment: NCI-60 SRB cytotoxicity screen; assay type: cell-based; settings: for inhibition at 10 µM: Homo sapiens, SNB-75, SNB-75, single dose 10 μM, read-out: growth inhibition (GI%)
[17] = tested on: U251 (CNS cancer); experiment: NCI-60 SRB cytotoxicity screen; assay type: cell-based; settings: Homo sapiens, U-251; U251, single dose 10 μM; read-out: growth inhibition (GI%)
[18] = tested on: LOX IMVI (melanoma); experiment: NCI-60 SRB cytotoxicity screen; assay type: cell-based; settings: Homo sapiens, single dose 10 μM, read-out: growth inhibition (GI%)
[19] = tested on: M14 (melanoma); experiment: NCI-60 SRB cytotoxicity screen; assay type: cell-based; settings: Homo sapiens; M14, single dose 10 μM; read-out: growth inhibition (GI%)
[20] = tested on: MDA-MB-435 (melanoma); experiment: NCI-60 SRB cytotoxicity screen; assay type: cell-based; settings: Homo sapiens, MDA-MB-435, read-out: growth inhibition (GI%)
[21] = tested on: SK-MEL-2 (melanoma); experiment: NCI-60 SRB cytotoxicity screen; assay type: cell-based; settings: Homo sapiens; SK-MEL-2, single dose 10 μM; read-out: growth inhibition (GI%)
[22] = tested on: SK-MEL-28 (melanoma); experiment: NCI-60 SRB cytotoxicity screen; assay type: cell-based; settings: Homo sapiens; SK-MEL-28, single dose 10 μM; read-out: growth inhibition (GI%)
[23] = tested on: SK-MEL-5 (melanoma); experiment: NCI-60 SRB cytotoxicity screen; assay type: cell-based; settings: Homo sapiens; SK-MEL-5, single dose 10 μM; read-out: growth inhibition (GI%)
[24] = tested on: UACC-62 (melanoma); experiment: NCI-60 SRB cytotoxicity screen; assay type: cell-based; settings: Homo sapiens; UACC-62, single dose 10 μM; read-out: growth inhibition (GI%)
[25] = tested on: OVCAR-8 (ovarian cancer); experiment: NCI-60 SRB cytotoxicity screen; assay type: cell-based; settings: Homo sapiens; OVCAR-8, single dose 10 μM; read-out: growth inhibition (GI%)
[26] = tested on: 786-0 (renal cancer); experiment: NCI-60 SRB cytotoxicity screen; assay type: cell-based; settings: Homo sapiens; 786-0, single dose 10 μM; read-out: growth inhibition (GI%)
[27] = tested on: A498 (renal cancer); experiment: NCI-60 SRB cytotoxicity screen; assay type: cell-based; settings: Homo sapiens; A498, single dose 10 μM; read-out: growth inhibition (GI%)
[28] = tested on: ACHN (renal cancer); experiment: NCI-60 SRB cytotoxicity screen; assay type: cell-based; settings: Homo sapiens, single dose 10 μM, read-out: growth inhibition (GI%)
[29] = tested on: CAKI-1 (renal cancer); experiment: NCI-60 SRB cytotoxicity screen; assay type: cell-based; settings: Homo sapiens; CAKI-1, single dose 10 μM; read-out: growth inhibition (GI%)
[30] = tested on: SN12C (renal cancer); experiment: NCI-60 SRB cytotoxicity screen; assay type: cell-based; settings: Homo sapiens, single dose 10 μM, read-out: growth inhibition (GI%)
[31] = tested on: TK-10 (renal cancer); experiment: NCI-60 SRB cytotoxicity screen; assay type: cell-based; settings: Homo sapiens; TK-10, single dose 10 μM; read-out: growth inhibition (GI%)
[32] = tested on: UO-31 (renal cancer); experiment: NCI-60 SRB cytotoxicity screen; assay type: cell-based; settings: Homo sapiens; UO-31, single dose 10 μM; read-out: growth inhibition (GI%)
[33] = tested on: PC-3 (prostate cancer); experiment: NCI-60 SRB cytotoxicity screen; assay type: cell-based; settings: PC-3, single dose 10 μM; read-out: growth inhibition (GI%)
[34] = tested on: DU-145 (prostate cancer); experiment: NCI-60 SRB cytotoxicity screen; assay type: cell-based; settings: Homo sapiens; DU-145, single dose 10 μM; read-out: growth inhibition (GI%)
[35] = tested on: HS 578T (breast cancer); experiment: NCI-60 SRB cytotoxicity screen; assay type: cell-based; settings: Homo sapiens, single dose 10 μM, read-out: growth inhibition (GI%)

Row | SMILES | inhibition at 10 µM [1] [%] | inhibition at 10 µM [2] [%] | inhibition at 10 µM [3] [%] | inhibition at 10 µM [4] [%] | inhibition at 10 µM [5] [%] | inhibition at 10 µM [6] [%] | inhibition at 10 µM [7] [%] | inhibition at 10 µM [8] [%] | inhibition at 10 µM [9] [%] | inhibition at 10 µM [10] [%] | inhibition at 10 µM [11] [%] | inhibition at 10 µM [12] [%] | inhibition at 10 µM [13] [%] | inhibition at 10 µM [14] [%] | inhibition at 10 µM [15] [%] | inhibition at 10 µM [16] [%] | inhibition at 10 µM [17] [%] | inhibition at 10 µM [18] [%] | inhibition at 10 µM [19] [%] | inhibition at 10 µM [20] [%] | other results
1 | CCc1cccc2cc(C=CC(=O)c3ccc(Br)cc3)c(Cl)nc12 [Compound 3e, 1-(4-Bromophenyl)-3-(2-chloro-8-ethylquinolin-3-yl)prop-2-en-1-one] | < 10 | < 10 | < 10 | < 10 | < 10 | < 10 | < 10 | < 10 | < 10 | < 10 | < 10 | < 10 | < 10 | < 10 | < 10 | < 10 | < 10 | < 10 | < 10 | < 10 | inhibition at 10 µM [21]: < 10%; inhibition at 10 µM [22]: < 10%; inhibition at 10 µM [23]: < 10%; inhibition at 10 µM [24]: < 10%; inhibition at 10 µM [25]: < 10%; inhibition at 10 µM [26]: < 10%; inhibition at 10 µM [27]: < 10%; inhibition at 10 µM [28]: < 10%; inhibition at 10 µM [29]: 12.8%; inhibition at 10 µM [30]: < 10%; inhibition at 10 µM [31]: < 10%; inhibition at 10 µM [32]: < 10%; inhibition at 10 µM [33]: < 10%; inhibition at 10 µM [34]: < 10%; inhibition at 10 µM [35]: < 10%; melting point: 210 to 212 °C
2 | CCc1cccc2cc(-c3cc(-c4ccc(OC)cc4)[nH]c(=O)c3C#N)c(Cl)nc12 [Compound 4a, 4-(2-Chloro-8-ethylquinolin-3-yl)-6-(4-methoxyphenyl)-2-oxo-1,2-dihydropyridine-3-carbonitrile] | < 10 | 19.9 | < 10 | < 10 | < 10 | 29.8 | 15.4 | < 10 | < 10 | < 10 | 11.9 | < 10 | < 10 | < 10 | < 10 | 54.7 | < 10 | < 10 | < 10 | < 10 | growth inhibition (GI%) ([16]; SNB-75, single dose 10 μM): 45.69%; inhibition at 10 µM [21]: < 10%; inhibition at 10 µM [22]: < 10%; inhibition at 10 µM [23]: 13.9%; inhibition at 10 µM [24]: < 10%; inhibition at 10 µM [25]: < 10%; inhibition at 10 µM [26]: 11.4%; inhibition at 10 µM [27]: < 10%; inhibition at 10 µM [28]: < 10%; inhibition at 10 µM [29]: 34.9%; inhibition at 10 µM [30]: < 10%; inhibition at 10 µM [31]: < 10%; inhibition at 10 µM [32]: < 10%; inhibition at 10 µM [33]: < 10%; inhibition at 10 µM [34]: < 10%; inhibition at 10 µM [35]: 14.9%; melting point: 270 to 272 °C
3 | CCc1cccc2cc(-c3cc(-c4ccc(OC)c(OC)c4)[nH]c(=O)c3C#N)c(Cl)nc12 [Compound 4b, 4-(2-Chloro-8-ethylquinolin-3-yl)-6-(3,4-dimethoxyphenyl)-2-oxo-1,2-dihydropyridine-3-carbonitrile] | < 10 | 20 | < 10 | < 10 | < 10 | 11.3 | < 10 | < 10 | < 10 | < 10 | 14.7 | < 10 | < 10 | < 10 | < 10 | 29.6 | < 10 | < 10 | < 10 | < 10 | inhibition at 10 µM [21]: < 10%; inhibition at 10 µM [22]: < 10%; inhibition at 10 µM [23]: < 10%; inhibition at 10 µM [24]: < 10%; inhibition at 10 µM [25]: < 10%; inhibition at 10 µM [26]: < 10%; inhibition at 10 µM [27]: < 10%; inhibition at 10 µM [28]: < 10%; inhibition at 10 µM [29]: 39.2%; inhibition at 10 µM [30]: < 10%; inhibition at 10 µM [31]: < 10%; inhibition at 10 µM [32]: < 10%; inhibition at 10 µM [33]: < 10%; inhibition at 10 µM [34]: < 10%; inhibition at 10 µM [35]: 10.3%; melting point: 280 to 282 °C
4 | CCc1cccc2cc(-c3cc(-c4ccc(OC)cc4)[nH]c(=S)c3C#N)c(Cl)nc12 [Compound 5a, 4-(2-Chloro-8-ethylquinolin-3-yl)-6-(4-methoxyphenyl)-2-thioxo-1,2-dihydropyridine-3-carbonitrile] | 14.9 | 28.8 | 15.7 | < 10 | < 10 | 36.2 | 15.9 | 11.8 | 17.6 | < 10 | 19.6 | < 10 | < 10 | 14.8 | < 10 | 21.6 | < 10 | < 10 | < 10 | < 10 | inhibition at 10 µM [21]: < 10%; inhibition at 10 µM [22]: < 10%; inhibition at 10 µM [23]: < 10%; inhibition at 10 µM [24]: 20.5%; inhibition at 10 µM [25]: 10.1%; inhibition at 10 µM [26]: < 10%; inhibition at 10 µM [27]: < 10%; inhibition at 10 µM [28]: < 10%; inhibition at 10 µM [29]: 44.7%; inhibition at 10 µM [30]: 10.3%; inhibition at 10 µM [31]: < 10%; inhibition at 10 µM [32]: 19.7%; inhibition at 10 µM [33]: < 10%; inhibition at 10 µM [34]: < 10%; inhibition at 10 µM [35]: 19.8%; melting point: 290 to 292 °C
